Data as given in patent publication US20250221410A1, “SUBSTITUTED 2-C-AZINES AND SALTS THEREOF, AND USE THEREOF AS HERBICIDAL ACTIVE SUBSTANCES” (BAYER AKTIENGESELLSCHAFT, priority 2022, published 2025).

Assays:
Type in all cases: in vivo
[1] = tested on: DIGSA: Digitaria sanguinalis; experiment: Pre-emergence herbicide efficacy at 80 g/ha, DIGSA; conditions: scored visually after about 3 weeks
Procedure, shortened: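 Weed seeds sown in pots and covered with soil; compounds formulated as WP or EC were sprayed onto the soil surface as aqueous suspension/emulsion with 0.5% additive at 600 l/ha water. Pots kept in greenhouse; efficacy scored visually after about 3 weeks versus untreated controls (0% = like control, 100% = plants dead).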

[2] = tested on: ALOMY: Alopecurus myosuroides; experiment: Post-emergence herbicidal efficacy at 1280 g/ha, ALOMY; conditions: rated visually after about 3 weeks vs untreated controls, 100% = plants have died, 0% = like control plants
Experimental: (§1) Seeds of mono- and dicotyledonous weed plants were placed in plastic pots in sandy loam soil (doubly sown with in each case one species of mono- or dicotyledonous weed plants per pot), covered with soil and cultivated in a greenhouse under controlled growth conditions. 2 to 3 weeks after sowing, the test plants were treated at the one-leaf stage. The compounds of the invention, formulated in the form of wettable powders (WP) or as emulsion concentrates (EC), were applied to the green parts of the plants as aqueous suspension or emulsion with addition of 0.5% additive at a water application rate equivalent to 600 litres per hectare. After the test plants had been kept in the greenhouse under optimum growth conditions for about 3 weeks, the activity of the preparations was rated visually in comparison to untreated controls. For example, 100% activity=the plants have died, 0% activity=like control plants. Tables A1 to A12 below show the effects of selected compounds of the general formula (I) according to Table 1 on various harmful plants and at an application rate corresponding to 1280 g/ha, which were obtained by the trial procedure specified above.

[3] = tested on: POAAN: Poa annua; experiment: Post-emergence herbicidal efficacy at 1280 g/ha, POAAN; conditions: visual rating about 3 weeks after treatment vs untreated controls
Procedure, shortened: (§2)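 Weeds grown in sandy loam in the greenhouse were sprayed at the one-leaf stage, 2 to 3 weeks after sowing, with WP or EC formulations in water plus 0.5% additive at 600 L/ha. Damage was scored visually about 3 weeks later against untreated controls (0% = like control, 100% = plants dead).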

[4] = tested on: STEME: Stellaria media; experiment: Pre-emergence herbicide efficacy at 1280 g/ha, STEME; conditions: visual scoring vs untreated controls
Procedure, shortened: (§3)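 Seeds sown in sandy loam in pots and covered; compounds as WP or EC applied to covering soil surface as aqueous suspension/emulsion with 0.5% additive at 600 L/ha water. Greenhouse growth ~3 weeks, then visual % efficacy vs untreated controls (100% = plants dead, 0% = like control).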

[5] = tested on: POAAN: Poa annua; experiment: Pre-emergence herbicide efficacy at 1280 g/ha, POAAN; conditions: visual scoring after about 3 weeks vs untreated controls
Procedure, shortened: as §3

[6] = tested on: KCHSC: Kochia scoparia; experiment: Post-emergence herbicidal efficacy at 1280 g/ha, KCHSC; conditions: visual rating about 3 weeks after treatment vs untreated controls
Procedure, shortened: as §2

[7] = tested on: VERPE: Veronica persica; experiment: Post-emergence herbicidal efficacy at 80 g/ha, VERPE; conditions: visual rating about 3 weeks after treatment vs untreated controls
Procedure, shortened: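 One-leaf-stage weeds in sandy loam were treated with aqueous suspensions or emulsions (0.5% additive, 600 l/ha) and held in the greenhouse for about 3 weeks before visual rating on a 0–100% scale versus untreated controls.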

[8] = tested on: ECHCG: Echinochloa crus-galli; experiment: Pre-emergence herbicide efficacy at 1280 g/ha, ECHCG; conditions: visual scoring after about 3 weeks vs untreated controls
Procedure, shortened: as §3

[9] = tested on: ALOMY: Alopecurus myosuroides; experiment: Pre-emergence herbicide efficacy at 80 g/ha, ALOMY; conditions: scored visually after about 3 weeks
Text: Seeds of monocotyledonous and dicotyledonous weed plants and crop plants were placed in plastic or organic planting pots and covered with soil. The compounds of the invention, formulated in the form of wettable powders (WP) or as emulsion concentrates (EC), were then applied to the surface of the covering soil as aqueous suspension or emulsion with addition of 0.5% additive at a water application rate equivalent to 600 l/ha. After the treatment, the pots were placed in a greenhouse and kept under good growth conditions for the test plants. After about 3 weeks, the efficacy of the preparations was scored visually in comparison with untreated controls as percentages. For example, 100% activity=the plants have died, 0% activity=like control plants. Tables D1 to D12 below show the effects of selected compounds of the general formula (I) according to Table 1 on various harmful plants and an application rate corresponding to 80 g/ha, which were obtained by the experimental procedure mentioned above.

[10] = tested on: STEME: Stellaria media; experiment: Post-emergence herbicidal efficacy at 1280 g/ha, STEME; conditions: visual rating about 3 weeks after treatment vs untreated controls
Procedure, shortened: as §2

[11] = tested on: ECHCG: Echinochloa crus-galli; experiment: Post-emergence herbicidal efficacy at 1280 g/ha, ECHCG; conditions: rated visually after about 3 weeks vs untreated controls, 100% = plants have died, 0% = like control plants
Procedure, shortened: as §2

[12] = tested on: ABUTH: Abutilon theophrasti; experiment: Pre-emergence herbicide efficacy at 1280 g/ha, ABUTH; conditions: visual scoring after about 3 weeks vs untreated controls
Procedure, shortened: as §3

[13] = tested on: LOLRI: Lolium rigidum; experiment: Pre-emergence herbicide efficacy at 1280 g/ha, LOLRI; conditions: visual scoring after about 3 weeks vs untreated controls
Procedure, shortened: as §3

[14] = tested on: VIOTR: Viola tricolor; experiment: Post-emergence herbicidal efficacy at 80 g/ha, VIOTR; conditions: visual rating about 3 weeks after treatment vs untreated controls
Experimental: (§4) Seeds of monocotyledonous and dicotyledonous weeds and crop plants were placed in sandy loam in plastic or organic planting pots, covered with soil and cultivated in a greenhouse under controlled growth conditions. 2 to 3 weeks after sowing, the test plants were treated at the one-leaf stage. The compounds of the invention, formulated in the form of wettable powders (WP) or as emulsion concentrates (EC), were then sprayed onto the green parts of the plants as aqueous suspension or emulsion with addition of 0.5% additive at a water application rate of 600 l/ha (converted). After the test plants had been kept in the greenhouse under optimum growth conditions for about 3 weeks, the activity of the preparations was rated visually in comparison to untreated controls. For example, 100% activity=the plants have died, 0% activity=like control plants. Tables B1 to B10 below show the effects of selected compounds of the general formula (I) according to Table 1 on various harmful plants and an application rate corresponding to 80 g/ha, which were obtained by the experimental procedure mentioned above.

[15] = tested on: SETVI: Setaria viridis; experiment: Pre-emergence herbicide efficacy at 1280 g/ha, SETVI; conditions: visual scoring vs untreated controls
Procedure, shortened: as §3

[16] = tested on: LOLRI: Lolium rigidum; experiment: Post-emergence herbicidal efficacy at 1280 g/ha, LOLRI; conditions: visual rating about 3 weeks after treatment vs untreated controls
Experimental: as §1

[17] = tested on: MATIN: Matricaria inodora; experiment: Post-emergence herbicidal efficacy at 1280 g/ha, MATIN; conditions: visual rating about 3 weeks after treatment vs untreated controls
Experimental: as §1

[18] = tested on: ABUTH: Abutilon theophrasti; experiment: Post-emergence herbicidal efficacy at 80 g/ha, ABUTH; conditions: rated visually after about 3 weeks vs untreated controls, 100% = plants have died, 0% = like control plants
Experimental: as §4

Row | SMILES | Pre-emergence efficacy against DIGSA in % [1] | Post-emergence efficacy at 1280 g/ha against ALOMY in % [2] | Post-emergence efficacy against POAAN [3] | Pre-emergence efficacy against STEME in % [4] | Pre-emergence efficacy against POAAN [5] | Post-emergence efficacy against KCHSC [6] | Post-emergence efficacy against VERPE [7] | Pre-emergence efficacy against ECHCG [8] | Pre-emergence efficacy against ALOMY in % [9] | Post-emergence efficacy against STEME [10] | Post-emergence efficacy at 1280 g/ha against ECHCG in % [11] | Pre-emergence efficacy against ABUTH [12] | Pre-emergence efficacy against LOLRI [13] | Post-emergence efficacy against VIOTR [14] | Pre-emergence efficacy against SETVI in % [15] | Post-emergence efficacy against LOLRI [16] | Post-emergence efficacy against MATIN [17] | Post-emergence efficacy at 80 g/ha against ABUTH in % [18]
1 | Fc1cnc(Oc2cccc(Br)c2Cc2ncc(Cl)cn2)nc1 [Example 1-54] | 100% | 90% | 100% | 100% | 100% | 100% | 100% | 100% | 80% | 100% | 100% | 100% | 100% | 100% | 100% | – | – | –
2 | Clc1cnc(Cc2c(Cl)cccc2Oc2ncc(Cl)cn2)nc1 [Example 1-56] | 100% | – | 90% | 100% | 100% | 90% | 100% | 100% | – | 90% | 90% | 100% | 100% | 100% | 100% | 90% | – | –
3 | N#Cc1cccc(Oc2ncc(F)cn2)c1Cc1ncc(Cl)cn1 [Example 1-59] | 100% | – | 100% | 100% | 100% | 100% | 90% | 100% | 80% | 100% | 90% | 100% | 100% | 100% | 100% | – | 100% | –
4 | FC(F)c1cc(-c2ccccc2Cc2ncc(Cl)cn2)on1 [Example 1-133] | 100% | 90% | 100% | 100% | 100% | 100% | 100% | 100% | – | 100% | 100% | 100% | 90% | 100% | 100% | 100% | – | 80%
